Experimental data: US8841302B2, “HCV inhibitor and therapeutic agent combinations” (PTC Therapeutics, Inc., priority 2009, dated 2014)

System: HCV replicon RNA in replicon cells
Test: Replicon RNA response to antiviral agent(s), real time PCR (Taqman assay)
Assay type: cell-based
Details: replicon cells treated 3 days
Method: Replicon cells were seeded at ˜5000 cells/well in 96-well collagen I-coated Biocoat plates (Becton Dickinson). At 24 hrs post-seeding, a series of replicon cells were treated with a HCV protease inhibitor and a HCV inhibitor. The final concentration of DMSO was 0.5%, fetal bovine serum was 10%, and G418 (an aminoglycoside used as a selective agent) was 500 μg/mL.
To each concentration of Compound 10p, HCV inhibitor Compound 31 was titrated. After 3 days, the cells were washed with PBS and lysed in 1× Cell Lysis Buffer (Ambion cat #8721).
The replicon RNA level was measured using real time PCR (Taqman assay). The ampicon was located in NS5b. The PCR primers used were: 5B.2F, ATGGACAGGCGCCCTGA (SEQ ID NO: 1); 5B.2R, […] (SEQ ID NO: 2); the probe sequence was FAM-labeled CACGCCATGCGCTGCGG (SEQ ID NO: 3). GAPDH RNA was used as endogenous control and was amplified in the same reaction as NS5b (multiplex PCR) using primers and VIC-labeled probe recommended by the manufacturer (PE Applied Biosystem). The real-time RT-PCR reactions were run on ABI PRISM 7900HT Sequence Detection System using the following program: 48° C. for 30 min, 95° C. for 10 min, 40 cycles of 95° C. for 15 sec, 60° C. for 1 min. The ΔCT values (CT5B-CTGAPDH) were plotted against test compound concentration and fitted to the sigmoid dose response model using Graphpad PRISM software (Graphpad Software Inc.). The half maximal inhibitory concentration (IC50) is the concentration necessary to achieve ΔCT=1 over the projected baseline. The 90% maximal inhibitory concentration (IC90) is the concentration necessary to achieve ΔCT=3.2 over the baseline. Alternatively, to quantitate the absolute amount of replicon RNA, a standard curve was established by including serially diluted T7 transcripts of replicon RNA in the Taqman assay. All Taqman reagents were from PE Applied Biosystem.

CC(C)(C)NC(=O)N[C@H](C(=O)N1C[C@H]2[C@@H]([C@H]1C(=O)NC(CC1CCC1)C(=O)C(N)=O)C2(C)C)C(C)(C)C (stereo partly drawn) [Cpd 10p, (1R,2S,5S)-N-(4-amino-1-cyclobutyl-3,4-dioxobutan-2-yl)-3-((S)-2-(3-tert-butylureido)-3,3-dimethylbutanoyl)-6,6-dimethyl-3-azabicyclo[3.1.0]hexane-2-carboxamide, reference compound]
relative inhibition (logarithmic scale) of replicon RNA level (Cpd 10p 0.19 μM alone (Compound 31 0 μM)): −0.11
relative inhibition (logarithmic scale) of replicon RNA level (Cpd 10p 1.5 μM alone (Compound 31 0 μM)): −1.52

N#Cc1c(-c2ccc(S(=O)(=O)NC(CF)CF)cn2)n(C2CCC2)c2cc(OC(F)F)ccc12 [Compound 31, 6-[3-cyano-1-cyclobutyl-6-(difluoromethoxy)-1H-indol-2-yl]-N-(1,3-difluoropropan-2-yl)pyridine-3-sulfonamide]
relative inhibition (logarithmic scale) of replicon RNA level (Compound 31 0.045 μM in combination with Cpd 10p 0.19 μM): −1.16
relative inhibition (logarithmic scale) of replicon RNA level (Compound 31 0.045 μM in combination with Cpd 10p 1.5 μM): −1.72
relative inhibition (logarithmic scale) of replicon RNA level (Compound 31 0.405 μM in combination with Cpd 10p 0.19 μM): −1.73
relative inhibition (logarithmic scale) of replicon RNA level (Compound 31 0.405 μM in combination with Cpd 10p 1.5 μM): −2.02
